Consider one compound from patent US20230092294A1, “COMPOSITIONS AND METHODS FOR POTENTIATING IMMUNE RESPONSE” (Kumquat Biosciences Inc., priority 2019, published 2023).

Test [1] relates to HER-2 positive tumor line (OVCAR-3). The experiment in a line: CAR-T killing assay (Example 7). Type of test: cell-based, human. An excerpt: HER-2 specific CAR-T cells (CAR-Ts) were generated by transducing primary human CD3+ T cells (Discovery Life Sciences) with a lentivirus expressing a chimeric antigen receptor specific to human HER2, as well as GFP (Creative Bio). Prior to transduction, T cells were stimulated overnight with anti-CD3 and anti-CD28 antibodies coated onto magnetic beads (Invitrogen) at a 1:1 bead-to-cell ratio. Four days after transduction, the beads were removed and the following day CAR-Ts were sorted based on GFP expression and expanded in hIL7 ([…]) (Peprotech) and hIL15 (5 ng/mL) (Peprotech) for an additional 8 days. […]
CAR-Ts were pretreated with 0.1% DMSO (vehicle control) or a PTPN22 inhibitor (Compound A) for 1-2.5 hours prior to co-culture with cell lines at indicated concentrations. […] Tumor killing was assessed by comparing DMSO-treated CAR-Ts to PTPN22 inhibitor-treated CAR-Ts using either flow cytometry or Incucyte imaged-based assessment of tumor cell viability, at various effector:target ratios. Percent killing was assessed by calculating the amount of viable cells at a given time point as compared to untreated tumor cells (spontaneous release, marked “No CAR-T” in FIG. 2), tumor cells treated with PTPN22 inhibitor, and tumor cells cultured with DMSO treated CAR-T cells as a control.

Test [2] relates to HER2-positive OVCAR-3 ovarian cancer cells. In words: Additional CAR-T killing assay (Example 11). Type of test: cell-based, human. The note with it: HER2 scFv-CD28-CD3z-CAR-T cells from Donor 1 or Donor 2, compound-treated 1h at 1, 3 or 10 μM; co-culture 2 h; vs DMSO; FIG. 5. The source says: HER2 scFv-CD28-CD3z-CAR-T (Creative Bio) lentiviral particles were generated via transfection of 293T cells using Lipofectamine 2000 transfection reagent (ThermoFisher) according to manufacturer's instructions Human CD3+ T cells were negatively selected from peripheral blood mononuclear cells (PBMCs) (Discovery Life Sciences) from two individual healthy donors (Donor 1, Donor 2) using EasySep Human T cell Isolation Kit (StemCell Technologies #17951) and subsequently activated at a concentration of 0.5×10^6 cells/mL with Human T Expander Dynabeads (Gibco) (Thermo Fisher Scientific #11141D) at a ratio of 1 bead per cell in CTS Optimizer T cell expansion serum free medium (SFM) (Thermo Fisher Scientific #A1048501) supplemented with recombinant human IL-7 (10 ng/mL) and recombinant human IL-15 (5 ng/mL) (Peprotech #200-02). […]
For the killing assay, HER2-positive OVCAR-3 (ATCC #HTB-161) ovarian cancer cells stably transduced with IncuCyte Nuclight Red Lentivirus (Essen Biosciences #4706) in OVCAR media (RPMI 1640+20% FBS, 1% Pen-Strep +0.01 mg/mL human insulin) were plated (1.5×10^4 cells/well) in 96-well flat-bottom plates and incubated at 37° C. to allow for overnight adherence to serve as target cells. […] Tumor cell death was quantified on a ZE5 flow cytometer (Bio-Rad).

Each structure is given as a SMILES string.

For the compound `O=C(O)c1cc2c(C#Cc3cccc(C(F)(F)F)c3)c(-c3ccccc3)oc2cc1O` [Compound A], the “tumor cell killing activity of CAR-T cells” value is recorded as “higher tumor cell killing activity” in test [1] (HER-2 specific CAR-Ts pretreated 1-2.5 hours then washed, compared to control cells treated with DMSO, FIG. 2) and “higher tumor cell killing activity” in test [2]. Further, the “increase in cell killing” value in test [1] (HER-2 specific CAR-Ts transiently pretreated 1-2.5 hours then washed, compared to DMSO control, FIG. 3) is recorded as at least 1.5 fold.
